Test results as given in patent US8987195B2 (priority 2012, dated 2015).
Where two headings read alike, the source gives them in different places.

Columns and labels:
HCV genotype 1b replicon = experiment: HCV replicon assay, genotype 1b replicon EC50; format: cell-based, Hepatitis C virus; conditions: Hepatitis C virus, read-out: EC50 [gt-1b]
Method in brief: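 Cells harbouring a stable replicon are grown under G418 selection, then plated with test compound in G418-free medium for 24-48 hours. After washing and lysis, RNA or luciferase signal is measured and expressed as percent of DMSO control to give EC50.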

[1] = molecular target: HCV NS3/4A protease genotype 1b (Hepatitis C virus genotype 1b, UniProt P26663); experiment: HCV NS3/4A protease time-resolved fluorescence (TRF) assay, Ki against genotype 1b; format: biochemical
Method in brief: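 Ki values come from IC50 fits corrected for substrate concentration and KM. The time-resolved fluorescence protease reaction used 25 nM peptide substrate, 2.5 h, room temperature, pH 7.5 HEPES buffer, after 30 min enzyme–inhibitor preincubation.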

[2] = IC50 [gt-1b] (nM), NS3/4A genotype 1b, enzyme 0.2 nM
[3] = genotype 1b replicon, HCOOH salt
[4] = IC50 [gt-1b] (nM), NS3/4A genotype 1b, enzyme 0.2 nM, HCOOH salt
[5] = HCV replicon, genotype 1b, K+ salt
[6] = IC50 [gt-1b], NS3/4A protease TRF assay, genotype 1b enzyme 0.2 nM, K+ salt

HCV NS3/4A protease genotype 1b, sequence (P26663 1027-1657): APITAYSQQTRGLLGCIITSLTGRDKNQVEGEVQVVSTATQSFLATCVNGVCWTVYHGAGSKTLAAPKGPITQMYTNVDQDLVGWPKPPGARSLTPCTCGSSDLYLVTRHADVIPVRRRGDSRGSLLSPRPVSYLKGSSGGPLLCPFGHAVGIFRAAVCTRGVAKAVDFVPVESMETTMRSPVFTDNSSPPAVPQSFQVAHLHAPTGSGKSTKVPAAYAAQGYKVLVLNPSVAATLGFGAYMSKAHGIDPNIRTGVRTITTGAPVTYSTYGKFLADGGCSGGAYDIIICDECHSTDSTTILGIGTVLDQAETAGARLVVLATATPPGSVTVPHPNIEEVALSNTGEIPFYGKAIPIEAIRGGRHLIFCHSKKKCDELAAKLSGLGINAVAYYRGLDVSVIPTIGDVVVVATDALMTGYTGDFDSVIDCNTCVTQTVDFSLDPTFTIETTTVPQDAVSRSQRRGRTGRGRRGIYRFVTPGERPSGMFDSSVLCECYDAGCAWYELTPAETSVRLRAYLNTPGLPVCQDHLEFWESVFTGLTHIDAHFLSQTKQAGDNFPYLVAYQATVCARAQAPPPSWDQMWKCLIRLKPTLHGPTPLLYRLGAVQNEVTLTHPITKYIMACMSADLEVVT
HCV NS3/4A protease genotype 1b, sequence (P26663 1658-1711): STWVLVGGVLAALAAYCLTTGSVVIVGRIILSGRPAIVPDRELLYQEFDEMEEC

Row | SMILES | EC50 (HCV genotype 1b replicon; genotype 1b replicon) | IC50 [1, 2] | also measured
1 | Cc1nc2ccc(OC(F)(F)F)cc2c2c1O[C@]1(CC2)C[C@H]2C(=O)N[C@]3(C(=O)NS(=O)(=O)C4(C)CC4)C[C@H]3/C=C\CCCCC[C@H](NC(=O)OC(C)C)C(=O)N2C1 [Example 123, propan-2-yl [(2R,6S,12Z,13aS,14aR,16aS)-5′-methyl-14a-{[(1-methylcyclopropyl)sulfonyl]carbamoyl}-5,16-dioxo-9′-(trifluoromethoxy)-1,1′,2′,5,6,7,8,9,10,11,13a,14,14a,15,16,16a-hexadecahydrospiro[cyclopropa[e]pyrrolo[1,2-a][1,4]diazacyclopentadecine-2,3′-pyrano[2,3-c]quinolin]-6-yl]carbamate] | 2.07 nM | 0.017 nM | –
2 | Cc1nc2ccccc2c2c1O[C@]1(CC2)C[C@H]2C(=O)N[C@]3(C(=O)NS(=O)(=O)C4(C)CC4)C[C@H]3/C=C\CCCCC[C@H](NC(=O)NCc3ccccc3)C(=O)N2C1 [Example 284, (2R,6S,12Z,13aS,14aR,16aS)-6-[(benzylcarbamoyl)amino]-5′-methyl-N-[(1-methylcyclopropyl)sulfonyl]-5,16-dioxo-1,1′,2′,6,7,8,9,10,11,13a,14,15,16,16a-tetradecahydrospiro[cyclopropa[e]pyrrolo[1,2-a][1,4]diazacyclopentadecine-2,3′-pyrano[2,3-c]quinoline]-14a(5H)-carboxamide] | – | – | EC50 (HCV genotype 1b replicon; [3]): 58.7 nM; IC50 [1, 4]: 0.038 nM
3 | COc1ccc2nc(C(F)(F)F)c3c(c2c1)CC[C@]1(C[C@H]2C(=O)N[C@]4(C(=O)NS(=O)(=O)C5(C)CC5)C[C@H]4/C=C\CCCCC[C@H](NC(=O)OC(C)(C)C)C(=O)N2C1)O3 [Example 5, tert-Butyl (2R,6S,13aS,14aR,16aS,Z)-9′-methoxy-14a-(1-methylcyclopropylsulfonylcarbamoyl)-5,16-dioxo-5′-(trifluoromethyl)-1′,2′,3,5,6,7,8,9,10,11,13a,14,14a,15,16, 16a-hexadecahydro-1H-spiro[cyclopropa[e]pyrrolo[1,2-a][1,4]diazacyclopentadecine-2,3′-pyrano[2,3-c]quinoline]-6-ylcarbamate] | 1.36 nM | 0.015 nM | –
4 | Cc1nc2cc(F)c(F)cc2c2c1O[C@]1(CC2)C[C@H]2C(=O)N[C@]3(C(=O)NS(=O)(=O)C4(C)CC4)C[C@H]3/C=C\CCCCC[C@H](NC(=O)OCC3CCCC3)C(=O)N2C1 [Example 232, cyclopentylmethyl [(2R,6S,12Z,13aS,14aR,16aS)-8′,9′-difluoro-5′-methyl-14a-{[(1-methylcyclopropyl)sulfonyl]carbamoyl}-5,16-dioxo-1,1′,2′,5,6,7,8,9,10,11,13a,14,14a,15,16,16a-hexadecahydrospiro[cyclopropa[e]pyrrolo[1,2-a][1,4]diazacyclopentadecine-2,3′-pyrano[2,3-c]quinolin]-6-yl]carbamate] | 12.9 nM | 0.085 nM | –
5 | Cc1nc2ccccc2c2c1O[C@@]1(C[C@H]3C(=O)N[C@]4(C(=O)NS(=O)(=O)C5(C)CC5)C[C@H]4/C=C\CCCCC[C@H](NC(=O)OC4CC(F)(F)C4(F)F)C(=O)N3C1)CC2(F)F (stereo partly drawn) [Example 112, 2,2,3,3-tetrafluorocyclobutyl [(2S,6S,12Z,13aS,14aR,16aS)-1′,1′-difluoro-5′-methyl-14a-{[(1-methylcyclopropyl)sulfonyl]carbamoyl}-5,16-dioxo-1,1′,2′,5,6,7,8,9,10,11,13a,14,14a,15,16,16a-hexadecahydrospiro[cyclopropa[e]pyrrolo[1,2-a][1,4]diazacyclopentadecine-2,3′-pyrano[2,3-c]quinolin]-6-yl]carbamate] | 32 nM | 0.226 nM | –
6 | COCCC(C)(C)OC(=O)N[C@H]1CCCCC/C=C\[C@@H]2C[C@@]2(C(=O)NS(=O)(=O)C2(C)CC2)NC(=O)[C@@H]2C[C@]3(CCc4c(c(C)nc5ccc(OC(F)(F)F)cc45)O3)CN2C1=O [Example 208, 4-methoxy-2-methylbutan-2-yl [(2R,6S,12Z,13aS,14aR,16aS)-5′-methyl-14a-{[(1-methylcyclopropyl)sulfonyl]carbamoyl}-5,16-dioxo-9′-(trifluoromethoxy)-1,1′,2′,5,6,7,8,9,10,11,13a,14,14a,15,16,16a-hexadecahydrospiro[cyclopropa[e]pyrrolo[1,2-a][1,4]diazacyclopentadecine-2,3′-pyrano[2,3-c]quinolin]-6-yl]carbamate] | 2.05 nM | 0.009 nM | –
7 | CC[C@H](C)OC(=O)N[C@H]1CCCCC/C=C\[C@@H]2C[C@@]2(C(=O)NS(=O)(=O)C2(COC)CC2)NC(=O)[C@@H]2C[C@]3(CCc4c(c(C(F)F)nc5ccc(OC)cc45)O3)CN2C1=O [Example 477, (2S)-butan-2-yl [(2R,6S,12Z,13aS,14aR,16aS)-5′-(difluoromethyl)-9′-methoxy-14a-({[1-(methoxymethyl)cyclopropyl]sulfonyl}carbamoyl)-5,16-dioxo-1,1′,2′,5,6,7,8,9,10,11,13a,14,14a,15,16,16a-hexadecahydrospiro[cyclopropa[e]pyrrolo[1,2-a][1,4]diazacyclopentadecine-2,3′-pyrano[2,3-c]quinolin]-6-yl]carbamate] | – | – | EC50 (HCV genotype 1b replicon; [5]): 5.05 nM; IC50 [1, 6]: 0.019 nM
8 | COc1ccc2nc(C(C)C)c3c(c2c1)CC[C@]1(C[C@H]2C(=O)N[C@]4(C(=O)NS(=O)(=O)C5(C)CC5)C[C@H]4/C=C\CCCCC[C@H](NC(=O)OC(C)(C)C(F)(F)F)C(=O)N2C1)O3 [Example 295, 1,1,1-trifluoro-2-methylpropan-2-yl [(2R,6S,12Z,13aS,14aR,16aS)-9′-methoxy-14a-{[(1-methylcyclopropyl)sulfonyl]carbamoyl}-5,16-dioxo-5′-(propan-2-yl)-1,1′,2′,5,6,7,8,9,10,11,13a,14,14a,15,16,16a-hexadecahydrospiro[cyclopropa[e]pyrrolo[1,2-a][1,4]diazacyclopentadecine-2,3′-pyrano[2,3-c]quinolin]-6-yl]carbamate] | 2.36 nM | 0.024 nM | –
9 | Cc1nc2ccccc2c2c1O[C@]1(CC2)C[C@H]2C(=O)N[C@]3(C(=O)NS(=O)(=O)C4(C)CC4)C[C@H]3/C=C\CCCCC[C@H](NC(=O)NC3CCCC3)C(=O)N2C1 [Example 283, (2R,6S,12Z,13aS,14aR,16aS)-6-[(cyclopentylcarbamoyl)amino]-5′-methyl-N-[(1-methylcyclopropyl)sulfonyl]-5,16-dioxo-1,1′,2′,6,7,8,9,10,11,13a,14,15,16,16a-tetradecahydrospiro[cyclopropa[e]pyrrolo[1,2-a][1,4]diazacyclopentadecine-2,3′-pyrano[2,3-c]quinoline]-14a(5H)-carboxamide] | – | – | EC50 (HCV genotype 1b replicon; [3]): 19 nM; IC50 [1, 4]: 0.012 nM
10 | CC1(OC(=O)N[C@H]2CCCCC/C=C\[C@@H]3C[C@@]3(C(=O)NS(=O)(=O)C3(C)CC3)NC(=O)[C@@H]3C[C@]4(CCc5c(c(C6CC6)nc6ccccc56)O4)CN3C2=O)CC1 [Example 102, 1-methylcyclopropyl [(2R,6S,12Z,13aS,14aR,16aS)-5′-cyclopropyl-14a-{[(1-methylcyclopropyl)sulfonyl]carbamoyl}-5,16-dioxo-1,1′,2′,5,6,7,8,9,10,11,13a,14,14a,15,16,16a-hexadecahydrospiro[cyclopropa[e]pyrrolo[1,2-a][1,4]diazacyclopentadecine-2,3′-pyrano[2,3-c]quinolin]-6-yl]carbamate] | 1.58 nM | 0.004 nM | –
11 | CCc1nc2ccc(OC)cc2c2c1O[C@]1(CC2)C[C@H]2C(=O)N[C@]3(C(=O)NS(=O)(=O)C4(C)CC4)C[C@H]3/C=C\CCCCC[C@H](NC(=O)OC(C)(C)C(F)(F)F)C(=O)N2C1 [Example 335, 1,1,1-trifluoro-2-methylpropan-2-yl [(2R,6S,12Z,13aS,14aR,16aS)-5′-ethyl-9′-methoxy-14a-{[(1-methylcyclopropyl)sulfonyl]carbamoyl}-5,16-dioxo-1,1′,2′,5,6,7,8,9,10,11,13a,14,14a,15,16,16a-hexadecahydrospiro[cyclopropa[e]pyrrolo[1,2-a][1,4]diazacyclopentadecine-2,3′-pyrano[2,3-c]quinolin]-6-yl]carbamate] | 2.6 nM | 0.017 nM | –
12 | COc1ccc2nc(C3CC3)c3c(c2c1)CC[C@]1(C[C@H]2C(=O)N[C@]4(C(=O)NS(=O)(=O)C5(C)CC5)C[C@H]4/C=C\CCCCC[C@H](NC(=O)O[C@@H](C)C(C)C)C(=O)N2C1)O3 [Example 412, (2S)-3-methylbutan-2-yl [(2R,6S,12Z,13aS,14aR,16aS)-5′-cyclopropyl-9′-methoxy-14a-{[(1-methylcyclopropyl)sulfonyl]carbamoyl}-5,16-dioxo-1,1′,2′,5,6,7,8,9,10,11,13a,14,14a,15,16,16a-hexadecahydrospiro[cyclopropa[e]pyrrolo[1,2-a][1,4]diazacyclopentadecine-2,3′-pyrano[2,3-c]quinolin]-6-yl]carbamate] | – | – | EC50 (HCV genotype 1b replicon; [5]): 1.42 nM; IC50 [1, 6]: 0.038 nM
13 | COCCCOc1ccc2nc(C)c3c(c2c1)CC[C@]1(C[C@H]2C(=O)N[C@]4(C(=O)NS(=O)(=O)C5(C)CC5)C[C@H]4/C=C\CCCCC[C@H](NC(=O)OC(C)(C)C)C(=O)N2C1)O3 [Example 438, tert-butyl [(2R,6S,12Z,13aS,14aR,16aS)-9′-(3-methoxypropoxy)-5′-methyl-14a-{[(1-methylcyclopropyl)sulfonyl]carbamoyl}-5,16-dioxo-1,1′,2′,5,6,7,8,9,10,11,13a,14,14a,15,16,16a-hexadecahydrospiro[cyclopropa[e]pyrrolo[1,2-a][1,4]diazacyclopentadecine-2,3′-pyrano[2,3-c]quinolin]-6-yl]carbamate] | – | – | EC50 (HCV genotype 1b replicon; HCV replicon, genotype 1b): 3.5 nM; IC50 ([1]; IC50 [gt-1b], NS3/4A protease TRF assay, genotype 1b enzyme 0.2 nM): 0.023 nM
